We go through seven compounds from patent US8519188B2, “Compounds which can be used for the treatment of cancers” (Marc-Henry Pitty, priority 2008, dated 2013).

Molecules are shown by their SMILES. Where a SMILES comes first, the peptide text is derived from it. [ ]: non-standard residue; d: D form. The star is where a group is joined. ξ: configuration not given here. ξV = CC(C)C(N)C(=O)O; BrAc = O=C(CBr)*

Data set [1] has as its system MCF-7/adr adriamycin-resistant breast cancer cell line. The experiment in a line: Cell proliferation (CellTiter 96 AQueous MTS/PMS), MCF-7/adr. The class given is cell-based. The settings on record: for IC50: Homo sapiens, NCI/ADR-RES, MCF-7/adr, 72 hours of incubation, concentration that induces the death of 50% of the cells, read-out: CI50 for various cell lines (nM) MCF-7/adr.

Data set [2] relates to MCF-7 breast cancer cell line. The experiment in a line: Cell proliferation (CellTiter 96 AQueous MTS/PMS), MCF-7. The settings on record: MCF7; for IC50: Homo sapiens, MCF-7, 72 hours of incubation, concentration that induces the death of 50% of the cells, read-out: CI50 for various cell lines (nM) MCF-7. The format is cell-based.
Data set [3] deals with HL-60 acute promyelocytic leukaemia cell line. The experiment in a line: Cell proliferation (CellTiter 96 AQueous MTS/PMS), HL-60. The class given is cell-based, human. The settings on record: for IC50: Homo sapiens, HL-60, 72 hours of incubation, read-out: CI50 for various cell lines (nM) HL-60. The procedure: (§1) The effects of the compounds of the invention on the proliferation of cancer cells were studied on various human cancer cell lines of various tissue origins (MCF-7: breast cancer, MCF-7/adr adriamycin-resistant breast cancer, ARH-77: myeloma, ARH-77/Dox: doxorubicin (other name for adriamycin)-resistant myeloma, HL-60: acute promyelocytic leukaemia, HL-60/R10: doxorubicin-resistant acute promyelocytic leukaemia). The cancer cells used for this study were incubated at 37° C. in the presence of one of the compounds of the invention added to the culture medium at various concentrations.
(§2) The cancer cell lines originate from the ATCC (American Type Culture Collection) in the case of MCF-7, ARH-77 and HL-60, from Pharmacell (Paris, France) for HL-60/R10, from Oncodesign (Dijon, France) for ARH-77/Dox and from the Pitié Salpetrière Hospital for MCF-7/adr. They were cultivated in a RPMI 1640 medium containing 2 mM L-glutamine and supplemented with 10% foetal calf serum. All the cell lines were maintained in culture at 37° C. in a moist atmosphere containing 5% CO2. Cell proliferation was evaluated using the “CellTiter 96® AQueous” reagent (Promega, Wis., USA) while adhering to the manufacturer's instructions. The cells were seeded in 96-well culture plates in a proportion of from 5,000 to 10,000 cells per well in 200 μl of culture medium. After 24 hours of preincubation at 37° C., the compounds of the invention dissolved in dimethyl sulphoxide (DMSO) were added individually to each of the wells in a proportion of 2 μl per well. After 72 hours of incubation at 37° C. in a moist atmosphere containing 5% CO2, 40 μL of a MTS/PMS ([3-(4,5-dimethylthiazol-2-yl)-5-(3-carboxymethoxyphenyl)-2-(4-sulphophenyl)-2H-tetrazolium phenazine methosulphate) solution were added to each well.

The test system of data set [4] is HL-60/R10 doxorubicin-resistant acute promyelocytic leukaemia cell line. The experiment in a line: Cell proliferation (CellTiter 96 AQueous MTS/PMS), HL-60/R10. The class given is cell-based, human. The settings on record: for IC50: Homo sapiens, HL-60/R10, 72 hours of incubation, read-out: CI50 for various cell lines (nM) HL-60/R10. The procedure:
as §1, §2

For a further data set, the system named is ARH-77 myeloma cell line. Description: Cell proliferation (CellTiter 96 AQueous MTS/PMS), ARH-77. The format is cell-based. The settings on record: Homo sapiens, 72 hours of incubation, read-out: CI50 for various cell lines (nM) ARH-77. The protocol:
as §1, §2

The test system of data set [5] is ARH-77/Dox doxorubicin-resistant myeloma cell line. The experiment in a line: Cell proliferation (CellTiter 96 AQueous MTS/PMS), ARH-77/Dox. The class given is cell-based. The settings on record: Homo sapiens, 72 hours of incubation, read-out: CI50 for various cell lines (nM) ARH-77/Dox. The protocol:
as §1, §2

On to `CC(C)C(NC(=O)CBr)C(=O)NCC(=O)O` (stereo not drawn) [BADLG, reference compound] (BrAc-[ξV]-Gly-OH), for which the “cytotoxic activity (concentration at which detected)” value in data set [1] (MCF7/adr, no cytotoxic activity detected for concentrations below 10 μM, same conditions as above) is ≥ 10 µM; in data set [2] (no cytotoxic activity detected for concentrations below 10 μM, same conditions as above), ≥ 10 µM; in data set [3] (HL60, no cytotoxic activity detected for concentrations below 10 μM, same conditions as above), ≥ 10 µM; in data set [4] (HL60/R10, no cytotoxic activity detected for concentrations below 10 μM, same conditions as above), ≥ 10 µM.
Take `C#CC(=O)N(c1cccc(C(F)(F)F)c1)C(C(=O)NCc1ccccc1)c1cccs1` (stereo not drawn) [Compound 1, Propynoic Acid (benzylcarbamoylthiophen-2-yl-methyl)-(3-trifluoromethylphenyl)amide]: the IC50 in data set [1] is 1.6 nM; in data set [2], 224 nM; in the data set on ARH-77 myeloma cell line, 46 nM; in data set [5], 12 nM; in data set [3] it was 1340 nM; in data set [4], 32 nM.
`C#CC(=O)N(c1ccc(C(F)(F)F)cc1)C(C(=O)NC1CCCCC1)c1cccs1` (stereo not drawn) [Compound 2, Propynoic Acid (cyclohexylcarbamoylthiophen-2-yl-methyl)-(4-trifluoromethylphenyl)amide]: the IC50 turned out to be 0.7 nM in data set [1]; 150 nM in data set [2]; 92 nM with ARH-77 myeloma cell line; 6 nM in data set [5]; 2080 nM in data set [3]; 95 nM in data set [4].
`C#CC(=O)N(c1cccc(C(F)(F)F)c1)C(C(=O)NC1CCCCC1)c1cccs1` (stereo not drawn) [Compound 3, Propynoic Acid (cyclohexylcarbamoylthiophen-2-yl-methyl)-(3-trifluoromethylphenyl)amide]: the IC50 in data set [1] was determined as 2.6 nM; in data set [2], 275 nM; in the data set with ARH-77 myeloma cell line, 58 nM; in data set [5] it was 5 nM; in data set [3], 2960 nM; in data set [4], 46 nM.
As to `C#CC(=O)N(c1ccc(C(F)(F)F)cc1)C(C(=O)NCc1ccccc1)c1cccs1` (stereo not drawn) [Compound 4, Propynoic Acid (benzylcarbamoylthiophen-2-yl-methyl)-(4-trifluoromethylphenyl)amide], the IC50 in data set [1] stood at 0.9 nM; in the data set with ARH-77 myeloma cell line, 103 nM; in data set [5], 25 nM; in data set [3], 1630 nM; in data set [4], 76 nM.
For `C#CC(=O)N(c1cccc(C(F)(F)F)c1)C(C(=O)NCc1ccccc1)c1ccc(C)s1` (stereo not drawn) [Compound 21, Propynoic Acid [benzylcarbamoyl-(5-methylthiophen-2-yl)-methyl]-(3-trifluoromethylphenyl)amide], the IC50 in the data set with ARH-77 myeloma cell line is 60 nM; in data set [5], 6 nM; in data set [3], 2020 nM; in data set [4], 43 nM.
As for `CC(C)c1ccc(N(C(=O)CCl)C(C(=O)NC2CCCCC2)c2ccc(OCCCN3CCN(C)CC3)cc2)c(F)c1` (stereo not drawn) [Compound 192, 2-[(2-Chloro-acetyl)-(2-fluoro-4-isopropyl-phenyl)-amino]-N-cyclohexyl-2-{4-[3-(4-methyl-piperazin-1-yl)-propoxy]-phenyl}-acetamide], the results for the IC50 in data set [3] and in data set [4] were 524 nM and 140 nM, respectively.
